In PMC7287031 (Pharmacology Research & Perspectives, 2020):
One block for each molecule: values may come before it.

Key:
[1] = Human ADME study: quantitative metabolite profiling in plasma; type: in vivo; set-up: AUC0-48h: concentration or dose not given beside the values
Procedure: A plasma pool across the six healthy volunteers included in the study was prepared at the time points of 1 hour, 3 hours, 24 hours, and 48 hours post dose. For each time point, an equal volume of plasma was taken from each subject and combined. Plasma pool samples were processed by protein precipitation with acetonitrile. The protein pellet that resulted from precipitation with acetonitrile was washed further with additional aliquots of acetonitrile. All acetonitrile washes were combined and evaporated under nitrogen. For the 3‐ and 24‐hour plasma pools, the extraction procedure was slightly modified, including precipitation of the plasma proteins by addition of a 1:1 mixture of acetonitrile:methanol, followed by washing of the protein pellet with the same solvent mixture. All extracts were reconstituted with a solution of 15‐mM ammonium formate and acetonitrile (95:5 v/v). Extraction and reconstitution recoveries were measured in all four plasma samples in order to calculate and overall recovery. Quantitative metabolite profiling in plasma was accomplished using a Shimadzu Prominence high‐performance liquid chromatography (HPLC) system (Shimadzu, Columbia, MD, USA), coupled with fraction collection and analysis of total radioactivity in individual fractions using AMS (as described above). A second injection of each sample, conducted immediately after the first, was used to provide HPLC fractions for metabolite identification. The fractions identified as containing radioactivity from the AMS analysis were analyzed by HPLC coupled with high‐resolution mass spectrometry to identify the metabolites. The HPLC‐MS/MS methodology used is described below.

[2] = Human ADME study: quantitative metabolite profiling in urine and feces; type: in vivo; settings: for Excretion (% of dose), Total: urine plus feces, pooled excreta n=6
Procedure: Average pools across the six subjects were also created by combining equal percentages (of total urine and feces excreted over the time interval) of the individual subject pools. Urine pools were analyzed directly for metabolite profiling (column recovery of a representative sample was measured), whereas feces pools were subjected to extraction. Specifically, to each aliquot of feces homogenate, two volumes of acetonitrile were added. After centrifugation, the pellet was washed further with an additional two volumes of acetonitrile. […] All washes were combined, evaporated under nitrogen, and reconstituted with a solution of 15‐mM ammonium formate (pH 3.5). This feces extract reconstitute was analyzed for metabolite profiling. Combined extraction and reconstitution (overall recovery) and column recovery were measured. […] The HPLC column used was a Phenomenex Kinetex, C18, 250 × 4.6 mm, equipped with a pre‐column of the same type (2.1 × 4.6 mm), which was placed in a column oven at 40°C. […] The HPLC gradient was as follows: initial conditions were 5% mobile phase B for 1 minute, then increased to 20% at 10 minutes post injection where it was held (isocratic) up to 20 minutes. […] The post column flow was directed to the fraction collector operated in a time‐slice mode and containing 96‐well Lumaplates (Perkin Elmer). The plates were dried at room temperature and the radioactivity was measured using a microplate scintillation counter model TopCount NXT (Perkin Elmer) instrument (up to 3 × 100‐minute counting time). […] Metabolites were identified during the same injections using data generated by the high‐resolution mass spectrometer. The molecular ions and key fragments of each drug‐related component were determined. Key fragments for each metabolite were derived from their product ion mass spectra and were used to determine the metabolite structures. Where possible, structural assignments were supported by exact mass measurement, comparison with synthetic standards and/or Hydrogen/Deuterium (H/D) exchange LC‐MS(/MS).

[3] = tested on: CYP enzymes that metabolise ribociclib in HLM (total metabolism; CYP-selective chemical inhibitors); experiment: Inhibition of [3H] ribociclib total metabolism in HLM by CYP- and FMO-selective inhibitors; type: in vitro ADME; settings: both, human, human liver microsomes, pH 7.4, probe [3H] ribociclib
[4] = Contribution of metabolites to total pharmacological activity in human; settings: considering in vitro measurements and in vivo exposure
[5] = substrate: CN(C)C(=O)c1cc2cnc(Nc3ccc(N4CCNCC4)cn3)nc2n1C1CCCC1; experiment: Enzyme kinetics with recombinant CYP3A5 and scaling to HLM; type: in vitro ADME, human; settings: other: recombinant CYP3A5; 37.0 °C
Procedure: (§1) In vitro incubations were carried out in 100‐mM potassium phosphate buffer (pH 7.4) and 5‐mM MgCl2 with a total volume of 200 µL. Substrate and either human liver microsomes (HLM, BD Biosciences, mixed gender pool of n = 50) or recombinant human enzymes (BD Biosciences) were added and pre‐incubated for 3 minutes at 37°C. The reaction was started by addition of a fresh solution of NADPH (1 mmol/L final concentration). The samples were incubated at 37°C with agitation of 500 rpm. For incubations with CYP2A6, CYP2C9, CYP2C18, and CYP4A11, the phosphate buffer was replaced by TRIS buffer (100 mmol/L, pH 7.4) and for flavin‐containing monooxygenases (FMOs), a glycine buffer (50 mM, pH 9.5) was used.
(§2) The enzymatic reaction was stopped and the protein was precipitated by addition of an equal volume of methanol. After 30 min at −80°C, the samples were centrifuged at 30'000 x g for 15 min. The supernatant was withdrawn. Aliquots were analyzed by LSC and the supernatant was diluted with water to obtain a final solution containing less than 20% of the organic solvent. For samples of low substrate concentration, supernatants were evaporated to dryness under nitrogen, then re‐suspended in water containing less than 20% of methanol. Samples were analyzed by HPLC combined with radiodetection.
(§3) The relative contribution of CYP enzymes to oxidative hepatic metabolism was determined using their Clint values multiplied by the unbound fraction in microsomes and their abundances in human liver microsomes. ^15 Among the hepatic P450 enzymes, CYP3A4 contributed predominantly (97%) to metabolism in human liver microsomes (Table 1) with negligible fraction metabolized by CYP1A2 (1.1%), CYP2J2 (0.8%), and CYP3A5 (1.2%).

[6] = substrate: CN(C)C(=O)c1cc2cnc(Nc3ccc(N4CCNCC4)cn3)nc2n1C1CCCC1; experiment: Enzyme kinetics with recombinant CYP1A2 and scaling to HLM; type: in vitro ADME, human; settings: other: recombinant CYP1A2; 37.0 °C
Procedure: as §1, §2, §3

[7] = human plasma pools n=6, from metabolite patterns

Molecule: CC[C@]1(C)C[C@@H](OC(=O)CSc2nnc(N)[nH]2)[C@]2(C)[C@H](C)CC[C@]3(CCC(=O)[C@H]32)[C@@H](C)[C@@H]1O [Azamulin]
- IC50 [3]: 1050 nM

Molecule: CN(C)C(=O)c1cc2cnc(Nc3ccc(N4CCN(S(=O)(=O)O)CC4)cn3)nc2n1C1CCCC1 [M8 (CQM386)]
- AUC0-48h [1, 7]: 14.2 nM·h
- AUC0-48h, % of total [14C]-AUC0-48 [1, 7]: 0.0297%
- Concentration in plasma pool ([1]; human, 1 h post dose, pool n=6, from metabolite patterns): 9.50 nM
- Excretion (% of dose), Total [2]: < 5.21 % of dose

B1: CYP3A5 (Homo sapiens) (protein)
chain: MDLIPNLAVETWLLLAVSLVLLYLYGTRTHGLFKRLGIPGPTPLPLLGNVLSYRQGLWKFDTECYKKYGKMWGTYEGQLPVLAITDPDVIRTVLVKECYSVFTNRRSLGPVGFMKSAISLAEDEEWKRIRSLLSPTFTSGKLKEMFPIIAQYGDVLVRNLRREAEKGKPVTLKDIFGAYSMDVITGTSFGVNIDSLNNPQDPFVESTKKFLKFGFLDPLFLSIILFPFLTPVFEALNVSLFPKDTINFLSKSVNRMKKSRLNDKQKHRLDFLQLMIDSQNSKETESHKALSDLELAAQSIIFIFAGYETTSSVLSFTLYELATHPDVQQKLQKEIDAVLPNKAPPTYDAVVQMEYLDMVVNETLRLFPVAIRLERTCKKDVEINGVFIPKGSMVVIPTYALHHDPKYWTEPEEFRPERFSKKKDSIDPYIYTPFGTGPRNCIGMRFALMNMKLALIRVLQNFSFKPCKETQIPLKLDTQGLLQPEKPIVLKVDSRDGTLSGE
notes: purchased BD Biosciences
- Km [5]: 23.9 µmol/L
- kcat [5]: 0.0122 s⁻¹
- kcat/Km [5]: 0.031 µL/min/pmol

B2: CYP1A2 (Homo sapiens) (protein)
chain: MALSQSVPFSATELLLASAIFCLVFWVLKGLRPRVPKGLKSPPEPWGWPLLGHVLTLGKNPHLALSRMSQRYGDVLQIRIGSTPVLVLSRLDTIRQALVRQGDDFKGRPDLYTSTLITDGQSLTFSTDSGPVWAARRRLAQNALNTFSIASDPASSSSCYLEEHVSKEAKALISRLQELMAGPGHFDPYNQVVVSVANVIGAMCFGQHFPESSDEMLSLVKNTHEFVETASSGNPLDFFPILRYLPNPALQRFKAFNQRFLWFLQKTVQEHYQDFDKNSVRDITGALFKHSKKGPRASGNLIPQEKIVNLVNDIFGAGFDTVTTAISWSLMYLVTKPEIQRKIQKELDTVIGRERRPRLSDRPQLPYLEAFILETFRHSSFLPFTIPHSTTRDTTLNGFYIPKKCCVFVNQWQVNHDPELWEDPSEFRPERFLTADGTAINKPLSEKMMLFGMGKRRCIGEVLAKWEIFLFLAILLQQLEFSVPPGVKVDLTPIYGLTMKHARCEHVQARLRFSIN
notes: purchased BD Biosciences
- Km [6]: 48 µmol/L
- kcat [6]: 0.0185 s⁻¹
- kcat/Km [6]: 0.023 µL/min/pmol

More lines, main results first:

- detection in plasma (AMS metabolite profiling) ([1]; human plasma): not observed in plasma
- Excretion (% of dose), Urine ([2]; pooled excreta n=6, from metabolite patterns (radio profiling)): 1.50 % of dose
- Excretion (% of dose), Total [2]: 1.50 % of dose
Molecule: CN(CO)C(=O)c1cc2cnc(Nc3ccc(N4CCNCC4)cn3)nc2n1C1CCCC1 [M15]

- AUC0-48h, % of total [14C]-AUC0-48 [1, 7]: 9.39%
- metabolite exposure as % of ribociclib exposure ([1]; human plasma, AUC0-48): 21.6%
Molecule: CN(C)C(=O)c1cc2cnc(Nc3ccc(N4CCN(O)CC4)cn3)nc2n1C1CCCC1 [M13 (CCI284)]
- contribution to total pharmacological activity in human [4]: not to have a relevant contribution to total pharmacological activity

- IC50 [3]: > 2000 nM
Molecule: CC(C)(O)c1ccccc1CC[C@@H](SCC1(CC(=O)O)CC1)c1cccc(/C=C/c2ccc3ccc(Cl)cc3n2)c1 [Montelukast]
